Results on 19 compounds are retold here after publication PMC7144323, “S-substituted 2-mercaptoquinazolin-4(3H)-one and 4-ethylbenzensulfonamides act as potent and selective human carbonic anhydrase IX and XII inhibitors” (Journal of Enzyme Inhibition and Medicinal Chemistry, 2020).

What all share (experiment): stopped-flow CA inhibition assay
Holding throughout (assay type): biochemical

Assay [1] addresses T1, hCA XII (Homo sapiens, UniProt O43570).
T1 construct: gene CA12; recombinant, obtained in-house
An excerpt: stopped-flow CA inhibition assay on hCA XII

Assay [2] addresses T2, hCA I (Homo sapiens, UniProt P00915).
T2 construct: gene CA1; recombinant, obtained in-house
From the text:
stopped-flow CA inhibition assay on hCA I

In assay [3] the target is T3, hCA IX (Homo sapiens, UniProt Q16790).
T3 construct: gene CA9; recombinant, obtained in-house
An excerpt: stopped-flow CA inhibition assay on hCA IX

Assay [4] concerns the target T4, hCA II (Homo sapiens, UniProt P00918).
T4 construct: gene CA2; recombinant, obtained in-house
An excerpt: stopped-flow CA inhibition assay on hCA II

Read-outs that look alike come from different tables or passages of the source.

T2 sequence (P00915 2-261): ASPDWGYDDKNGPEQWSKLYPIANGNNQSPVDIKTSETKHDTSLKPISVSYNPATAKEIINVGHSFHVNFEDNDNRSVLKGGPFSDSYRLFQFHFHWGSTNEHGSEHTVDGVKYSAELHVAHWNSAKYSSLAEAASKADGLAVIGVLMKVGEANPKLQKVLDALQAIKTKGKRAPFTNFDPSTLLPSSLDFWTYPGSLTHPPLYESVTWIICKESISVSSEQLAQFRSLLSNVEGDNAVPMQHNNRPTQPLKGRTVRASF
T1 sequence (O43570 25-354): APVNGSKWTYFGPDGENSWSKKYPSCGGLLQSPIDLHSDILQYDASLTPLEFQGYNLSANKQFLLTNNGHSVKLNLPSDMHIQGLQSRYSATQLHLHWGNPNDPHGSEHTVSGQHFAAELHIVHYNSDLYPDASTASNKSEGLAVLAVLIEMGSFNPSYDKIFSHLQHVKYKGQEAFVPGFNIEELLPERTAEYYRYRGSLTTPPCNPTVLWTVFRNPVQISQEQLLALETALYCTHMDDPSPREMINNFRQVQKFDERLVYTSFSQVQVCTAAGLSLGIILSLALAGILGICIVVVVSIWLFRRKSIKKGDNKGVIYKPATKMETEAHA

Take `NS(=O)(=O)c1ccc(CCn2c(SCC(=O)c3ccccc3)nc3ccccc3c2=O)cc1` [compound 2, 4-(2-(4-Oxo-2-((2-oxo-2-phenylethyl)thio)quinazolin-3(4H)-yl)ethyl)benzenesulfonamide]: the Ki (usually a dissociation constant, usually derived from enzyme kinetics or from competition with a known ligand) in assay [1] stood at 13 nM; in assay [2], 593 nM; in assay [3], 40.7 nM.
In the same order, the values of `NS(=O)(=O)c1ccc(CCn2c(SCC(=O)c3ccc(Br)cc3)nc3ccccc3c2=O)cc1` [compound 3, 4-(2-(2-((2-(4-Bromophenyl)-2-oxoethyl)thio)-4-oxoquinazolin-3(4H)-yl)ethyl)benzenesulfonamide] are 69.6 nM, 1450 nM and 75.2 nM.
Regarding `NS(=O)(=O)c1ccc(CCn2c(SCC(=O)c3ccc(Cl)cc3)nc3ccccc3c2=O)cc1` [compound 4, 4-(2-(2-((2-(4-Chlorophenyl)-2-oxoethyl)thio)-4-oxoquinazolin-3(4H)-yl)ethyl)benzenesulfonamide], the Ki in assay [1] (mean of […] assays, errors ±[…]) was 10.8 nM; in assay [3] (mean of […] assays, errors ±[…]) it was 8 nM.
Regarding `NS(=O)(=O)c1ccc(CCn2c(SCC(=O)c3ccc(F)cc3)nc3ccccc3c2=O)cc1` [compound 5, 4-(2-(2-((2-(4-Fluorophenyl)-2-oxoethyl)thio)-4-oxoquinazolin-3(4H)-yl)ethyl)benzenesulfonamide], the Ki in assay [1] was determined as 9.1 nM; in assay [2] it was 400 nM; in assay [3] (mean of […] assays, errors ±[…]), 16.5 nM.
Regarding `Cc1ccc(C(=O)CSc2nc3ccccc3c(=O)n2CCc2ccc(S(N)(=O)=O)cc2)cc1` [compound 6, 4-(2-(4-Oxo-2-((2-oxo-2-(p-tolyl)ethyl)thio)quinazolin-3(4H)-yl)ethyl)benzenesulfonamide], the Ki in assay [1] was found to be 85.1 nM; in assay [2], 471 nM; in assay [3] it was 25.1 nM.
As to `CC(Sc1nc2ccccc2c(=O)n1CCc1ccc(S(N)(=O)=O)cc1)C(=O)c1ccccc1` (stereo not shown) [compound 7, 4-(2-(4-Oxo-2-((1-oxo-1-phenylpropan-2-yl)thio)quinazolin-3(4H)-yl)ethyl)benzenesulfonamide], the values for the Ki in assay [1], in assay [2] and in assay [3] were 76.8 nM, 978 nM and 63.2 nM, respectively.
With `NC(=O)CSc1nc2ccccc2c(=O)n1CCc1ccc(S(N)(=O)=O)cc1` [compound 8, 8], the inhibition constant Ki in assay [1] (mean of […] assays, errors ±[…]) amounted to 2.4 nM; in assay [3] (mean of […] assays, errors ±[…]), 34.5 nM.
For the compound `NS(=O)(=O)c1ccc(CCn2c(SCC(=O)Nc3ccccc3)nc3ccccc3c2=O)cc1` [compound 9, 9], the figures for the Ki in assay [1], in assay [2] and in assay [3] were 38.4 nM, 460 nM and 27.3 nM, respectively.
Consider `NS(=O)(=O)c1ccc(CCn2c(SCC(=O)Nc3ccc(Br)cc3)nc3ccccc3c2=O)cc1` [compound 10, 10], for which the Ki in assay [1] turned out to be 61 nM; in assay [2], 697 nM; in assay [3], 64.9 nM.
Consider `NS(=O)(=O)c1ccc(CCn2c(SCC(=O)Nc3ccc(Cl)cc3)nc3ccccc3c2=O)cc1` [compound 11, 11], for which the Ki in assay [1] amounted to 31.6 nM; in assay [2], 726 nM; in assay [4], 92 nM; in assay [3] it was 66.8 nM.
Turning to `NS(=O)(=O)c1ccc(CCn2c(SCC(=O)Nc3ccc(F)cc3)nc3ccccc3c2=O)cc1` [compound 12, N-(4-fluorophenyl)-2-((4-oxo-3-(4-sulfamoylphenethyl)-3,4-dihydroquinazolin-2-yl)thio)acetamide], the Ki in assay [1] is 8.7 nM; in assay [3] (mean of […] assays, errors ±[…]), 12.7 nM.
In the case of `Cc1ccc(NC(=O)CSc2nc3ccccc3c(=O)n2CCc2ccc(S(N)(=O)=O)cc2)cc1` [compound 13, 13], the Ki in assay [1] stood at 45.2 nM; in assay [2], 878 nM; in assay [3] it was 37.4 nM.
Consider `COc1ccc(NC(=O)CSc2nc3ccccc3c(=O)n2CCc2ccc(S(N)(=O)=O)cc2)cc1` [compound 14, 14], for which the figures for the Ki in assay [1], in assay [2] and in assay [3] were 49.1 nM, 2570 nM and 84 nM, respectively.
Consider `CCOc1ccc(NC(=O)CSc2nc3ccccc3c(=O)n2CCc2ccc(S(N)(=O)=O)cc2)cc1` [compound 15, 15], for which the Ki in assay [1] is 59.7 nM; in assay [2], 3650 nM; in assay [3] it was 35.9 nM.
Regarding `CC(=O)c1ccc(NC(=O)CSc2nc3ccccc3c(=O)n2CCc2ccc(S(N)(=O)=O)cc2)cc1` [compound 16, 16], the Ki in assay [1] is 22.5 nM; in assay [2], 1700 nM; in assay [3], 24.1 nM.
In the same order, the values of `COc1cc(NC(=O)CSc2nc3ccccc3c(=O)n2CCc2ccc(S(N)(=O)=O)cc2)cc(OC)c1OC` [compound 17, 17] are 16.9 nM, 2670 nM and 100 nM.
In the same order, the values of `NS(=O)(=O)c1ccc(CCn2c(SCC(=O)NCc3ccc(F)cc3)nc3ccccc3c2=O)cc1` [compound 18, N-(4-fluorobenzyl)-2-((4-oxo-3-(4-sulfamoylphenethyl)-3,4-dihydroquinazolin-2-yl)thio)acetamide] are 113 nM, 2050 nM and 256 nM.
For `COc1ccc(CNC(=O)CSc2nc3ccccc3c(=O)n2CCc2ccc(S(N)(=O)=O)cc2)cc1OC` [compound 19, 19], in that order: 97.3 nM, 5470 nM and 145 nM.
On to `CC(Sc1nc2ccccc2c(=O)n1CCc1ccc(S(N)(=O)=O)cc1)C(=O)Nc1ccc(Cl)cc1` (stereo not shown) [compound 20, 20], for which the Ki came out at 66.7 nM in assay [1], 3630 nM in assay [2] and 18.6 nM in assay [3].
